This note sets out measurements from patent publication US20250145642A1, “BICYCLIC HETEROARENES AND METHODS OF THEIR USE” (Kineta, Inc., priority 2021, published 2025).

As a reminder, the IC50 is the concentration at which inhibition is half-maximal.

Each structure is given as a SMILES string. Where a name gives a salt, the structure may show the parent alone.

full-length human PIKFYVE (N-terminal GST-fusion), sequence (Q9Y2I7 whole entry S696N/L932S/Q995L/T998S/S1033A/Q1183K, the tested form may be a part): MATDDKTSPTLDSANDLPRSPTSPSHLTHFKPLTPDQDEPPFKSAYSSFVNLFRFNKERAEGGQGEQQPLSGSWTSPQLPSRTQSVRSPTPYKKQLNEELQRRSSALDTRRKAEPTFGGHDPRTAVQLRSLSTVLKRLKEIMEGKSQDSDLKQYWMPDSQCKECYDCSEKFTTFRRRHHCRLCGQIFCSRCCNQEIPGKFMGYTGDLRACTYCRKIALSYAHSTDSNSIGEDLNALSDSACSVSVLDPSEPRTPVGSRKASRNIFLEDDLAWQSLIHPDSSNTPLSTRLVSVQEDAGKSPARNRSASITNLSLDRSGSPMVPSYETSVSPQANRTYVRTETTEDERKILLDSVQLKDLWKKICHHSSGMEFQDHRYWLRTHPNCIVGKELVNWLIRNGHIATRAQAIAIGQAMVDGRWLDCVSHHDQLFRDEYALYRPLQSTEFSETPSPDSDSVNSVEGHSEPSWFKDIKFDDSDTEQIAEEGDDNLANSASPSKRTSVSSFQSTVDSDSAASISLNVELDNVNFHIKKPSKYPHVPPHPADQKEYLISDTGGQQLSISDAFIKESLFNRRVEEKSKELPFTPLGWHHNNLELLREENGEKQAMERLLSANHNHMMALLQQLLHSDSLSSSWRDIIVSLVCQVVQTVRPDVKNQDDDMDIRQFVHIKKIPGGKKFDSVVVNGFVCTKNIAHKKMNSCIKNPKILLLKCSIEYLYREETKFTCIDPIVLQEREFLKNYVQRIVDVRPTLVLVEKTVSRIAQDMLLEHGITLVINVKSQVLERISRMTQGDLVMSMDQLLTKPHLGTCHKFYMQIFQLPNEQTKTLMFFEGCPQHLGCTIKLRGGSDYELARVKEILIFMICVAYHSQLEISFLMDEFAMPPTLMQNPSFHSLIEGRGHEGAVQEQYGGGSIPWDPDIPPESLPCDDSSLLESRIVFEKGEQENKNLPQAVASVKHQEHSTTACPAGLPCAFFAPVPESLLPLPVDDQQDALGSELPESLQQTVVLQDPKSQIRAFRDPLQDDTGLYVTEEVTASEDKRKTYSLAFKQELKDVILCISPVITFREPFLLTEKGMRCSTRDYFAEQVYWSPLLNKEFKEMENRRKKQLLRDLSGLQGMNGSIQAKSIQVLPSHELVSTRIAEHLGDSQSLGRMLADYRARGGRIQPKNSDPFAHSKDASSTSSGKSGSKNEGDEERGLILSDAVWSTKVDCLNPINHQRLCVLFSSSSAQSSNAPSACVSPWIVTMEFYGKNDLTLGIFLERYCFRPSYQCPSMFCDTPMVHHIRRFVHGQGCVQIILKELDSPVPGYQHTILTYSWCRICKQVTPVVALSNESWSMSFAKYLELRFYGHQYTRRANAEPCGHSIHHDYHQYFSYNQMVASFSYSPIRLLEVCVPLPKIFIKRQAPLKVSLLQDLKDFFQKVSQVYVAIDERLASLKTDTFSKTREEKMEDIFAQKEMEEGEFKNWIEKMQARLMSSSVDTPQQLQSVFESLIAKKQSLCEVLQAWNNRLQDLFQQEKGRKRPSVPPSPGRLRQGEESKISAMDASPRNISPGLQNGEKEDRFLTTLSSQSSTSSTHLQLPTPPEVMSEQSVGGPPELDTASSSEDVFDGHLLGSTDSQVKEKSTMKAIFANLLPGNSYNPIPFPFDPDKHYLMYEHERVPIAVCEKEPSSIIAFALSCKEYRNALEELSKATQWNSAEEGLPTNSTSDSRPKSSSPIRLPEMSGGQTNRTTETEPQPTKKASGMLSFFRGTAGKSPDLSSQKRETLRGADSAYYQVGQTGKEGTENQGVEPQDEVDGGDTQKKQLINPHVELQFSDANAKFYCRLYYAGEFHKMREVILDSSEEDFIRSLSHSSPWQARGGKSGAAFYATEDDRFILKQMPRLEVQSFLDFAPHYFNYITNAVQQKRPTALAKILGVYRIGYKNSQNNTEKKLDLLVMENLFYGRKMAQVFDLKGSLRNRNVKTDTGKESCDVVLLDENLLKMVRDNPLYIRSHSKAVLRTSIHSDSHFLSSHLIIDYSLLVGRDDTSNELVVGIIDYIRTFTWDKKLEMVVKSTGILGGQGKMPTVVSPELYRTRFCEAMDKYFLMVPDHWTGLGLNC

The target of this assay is full-length human PIKFYVE (N-terminal GST-fusion) (Homo sapiens (Human), UniProt Q9Y2I7, L932S/Q1183K/Q995L/S1033A/S696N/T998S). The assay is described as follows: PIKfyve biochemical assay (ADP-Glo Kinase assay, Carna Biosciences). Particulars: ADP-Glo, full-length human GST-PIKFYVE, 10 μM to 3 nM; read-out: hPIKfyve IC50. Summed up:
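Baculovirus-expressed, glutathione-purified GST-tagged full-length human PIKFYVE (S696N/L932S/Q995L/T998S/S1033A/Q1183K) reacted with substrate and ATP in 50 mM MOPS, 1 mM DTT, pH 7.2, 1 h at room temperature. ADP formed read by ADP-Glo luminescence.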
On the technique in general: ADP-Glo first removes unused ATP, then detects ADP through luciferase.
Take `c1cncc(N2CCc3c(C4CCNCC4)nc(N4CCOCC4)nc32)c1` [Compound 108, 4-(4-(piperidin-4-yl)-7-(pyridin-3-yl)-6,7-dihydro-5H-pyrrolo[2,3-d]pyrimidin-2-yl)morpholine]: the IC50 was in the range of 1000 to 10000 nM.

In the case of `CN1CCC(c2nc(N3CCOCC3)nc3c2CCN3c2cccnc2)CC1` [Compound 109, 4-(4-(1-methylpiperidin-4-yl)-7-(pyridin-3-yl)-6,7-dihydro-5H-pyrrolo[2,3-d]pyrimidin-2-yl)morpholine], the IC50 fell in the range of 1000 to 10000 nM. For `CC(C)(C)OC(=O)N1CCC(c2nc(N3CCOCC3)nc3c2CCN3c2ccccc2)CC1` [Compound 110, tert-butyl 4-(2-morpholino-7-phenyl-6,7-dihydro-5H-pyrrolo[2,3-d]pyrimidin-4-yl)piperidine-1-carboxylate], the IC50 was in the range of 10 to 100 nM. Turning to `c1ccc(N2CCc3c(C4CCNCC4)nc(N4CCOCC4)nc32)cc1` [Compound 111, 4-(7-phenyl-4-(piperidin-4-yl)-6,7-dihydro-5H-pyrrolo[2,3-d]pyrimidin-2-yl)morpholine], the IC50 was 100 to 1000 nM.

As to `CN1CCC(c2nc(N3CCOCC3)nc3c2CCN3c2ccccc2)CC1` [Compound 112, 4-(4-(1-methylpiperidin-4-yl)-7-phenyl-6,7-dihydro-5H-pyrrolo[2,3-d]pyrimidin-2-yl)morpholine], the half-inhibitory concentration (IC50) was in the range of 10 to 100 nM. As to `CC(C)(C)OC(=O)N1CC(c2nc(N3CCOCC3)nc3c2CCN3c2ccccc2)C1` [Compound 113, tert-butyl 3-(2-morpholino-7-phenyl-6,7-dihydro-5H-pyrrolo[2,3-d]pyrimidin-4-yl)azetidine-1-carboxylate], the IC50 was under 10 nM.

Consider `c1cncc(N2CCc3c(C4CCCNC4)nc(N4CCOCC4)nc32)c1` (stereo not shown) [Compound 114, 4-(4-(piperidin-3-yl)-7-(pyridin-3-yl)-6,7-dihydro-5H-pyrrolo[2,3-d]pyrimidin-2-yl)morpholine], for which the 50% inhibitory concentration (IC50) was in the range of 1000 to 10000 nM. The figure for `c1ccc(N2CCc3c(C4CNC4)nc(N4CCOCC4)nc32)cc1` [Compound 115, 4-(4-(azetidin-3-yl)-7-phenyl-6,7-dihydro-5H-pyrrolo[2,3-d]pyrimidin-2-yl)morpholine] is 100 to 1000 nM; for `c1ccc(N2CCc3c(C4CCNC4)nc(N4CCOCC4)nc32)cc1` (stereo not shown) [Compound 116, 4-(7-phenyl-4-(pyrrolidin-3-yl)-6,7-dihydro-5H-pyrrolo[2,3-d]pyrimidin-2-yl)morpholine] it is 10 to 100 nM; for `CN1CC(c2nc(N3CCOCC3)nc3c2CCN3c2ccccc2)C1` [Compound 117, 4-(4-(1-methylazetidin-3-yl)-7-phenyl-6,7-dihydro-5H-pyrrolo[2,3-d]pyrimidin-2-yl)morpholine] it is 100 to 1000 nM. Next, `O=C(C1CC1)N1CCC(c2nc(N3CCOCC3)nc3c2CCN3c2ccccc2)C1` (stereo not shown) [Compound 118, cyclopropyl(3-(2-morpholino-7-phenyl-6,7-dihydro-5H-pyrrolo[2,3-d]pyrimidin-4-yl)pyrrolidin-1-yl)methanone]: under 10 nM; `CC(=O)N1CCC(c2nc(N3CCOCC3)nc3c2CCN3c2ccccc2)C1` (stereo not shown) [Compound 119, 1-(3-(2-morpholino-7-phenyl-6,7-dihydro-5H-pyrrolo[2,3-d]pyrimidin-4-yl)pyrrolidin-1-yl)ethanone]: 10 to 100 nM.

Regarding `CC(=O)N1CCC(c2nc(N3CCOCC3)nc3c2CCN3c2ccccc2)CC1` [Compound 120, 1-(4-(2-morpholino-7-phenyl-6,7-dihydro-5H-pyrrolo[2,3-d]pyrimidin-4-yl)piperidin-1-yl)ethan-1-one], the IC50 was 10 to 100 nM. The figure for `CN1CCC(c2nc(N3CCOCC3)nc3c2CCN3c2ccccc2)C1` (stereo not shown) [Compound 121, 4-(4-(1-methylpyrrolidin-3-yl)-7-phenyl-6,7-dihydro-H-pyrrolo[2,3-d]pyrimidin-2-yl)morpholine] is 100 to 1000 nM. The figure for `COc1cccc(C2CC2c2nc(N3CCOCC3)nc3c2CCN3c2cccnc2)c1` (stereo not shown) [Compound 122, 4-(4-(2-(3-methoxyphenyl)cyclopropyl)-7-(pyridin-3-yl)-6,7-dihydro-5H-pyrrolo[2,3-d]pyrimidin-2-yl)morpholine] is 100 to 1000 nM; for `COc1cccc(-c2nccc(-c3nc(N4CCOCC4)nc4c3CCN4c3cccnc3)n2)c1` [Compound 123, 4-(4-(2-(3-methoxyphenyl)pyrimidin-4-yl)-7-(pyridin-3-yl)-6,7-dihydro-5H-pyrrolo[2,3-d]pyrimidin-2-yl)morpholine] it is 100 to 1000 nM; for `c1ccc(-c2nccc(-c3nc(N4CCOCC4)nc4c3CCN4c3cccnc3)n2)cc1` [Compound 124, 4-(4-(2-phenylpyrimidin-4-yl)-7-(pyridin-3-yl)-6,7-dihydro-5H-pyrrolo[2,3-d]pyrimidin-2-yl)morpholine hydrochloride] it is 10 to 100 nM.

For `c1ccc(-c2nccc(-c3nc(N4CCOCC4)nc4c3CCN4c3ccncc3)n2)cc1` [Compound 125, 4-(4-(2-phenylpyrimidin-4-yl)-7-(pyridin-4-yl)-6,7-dihydro-5H-pyrrolo[2,3-d]pyrimidin-2-yl)morpholine], the half-maximal inhibitory concentration (IC50) was 10 to 100 nM. The figure for `CN1CCC(c2nc(N3CCOCC3)nc3c2ncn3-c2ccccc2)C1` (stereo not shown) [Compound 126, 4-(6-(1-methylpyrrolidin-3-yl)-9-phenyl-9H-purin-2-yl)morpholine] is 1000 to 10000 nM; for `CN1CCCC(c2nc(N3CCOCC3)nc3c2ncn3-c2cccnc2)C1` (stereo not shown) [Compound 127, 4-(6-(1-methylpiperidin-3-yl)-9-(pyridin-3-yl)-9H-purin-2-yl)morpholine] it is over 10000 nM. `c1ccc(-n2cnc3c(-c4ccncc4)nc(N4CCOCC4)nc32)cc1` [Compound 128, 4-(9-phenyl-6-(pyridin-4-yl)-9H-purin-2-yl)morpholine]: the IC50 lay within 10 to 100 nM. Next, `Cc1cccc(N2C(=O)Cc3c(OCc4cccnc4)nc(N4CCOCC4)nc32)c1` [Compound 129, 2-morpholino-4-(pyridin-3-ylmethoxy)-7-m-tolyl-5H-pyrrolo[2,3-d]pyrimidin-6(7H)-one]: 100 to 1000 nM. For the compound `O=C1COc2c(OCc3cccnc3)nc(N3CCOCC3)nc2N1c1ccccc1` [Compound 130, 2-morpholino-8-phenyl-4-(pyridin-3-ylmethoxy)-6H-pyrimido[5,4-b][1,4]oxazin-7(8H)-one], the 50% inhibitory concentration (IC50) lay within 100 to 1000 nM. The figure for `c1ccc(-n2ncc3c(N4CCOCC4)nc(OCc4cccnc4)nc32)cc1` [Compound 131, 4-(1-phenyl-6-(pyridin-3-ylmethoxy)-1H-pyrazolo[3,4-d]pyrimidin-4-yl)morpholine] is 1000 to 10000 nM; for `c1ccc(-c2c[nH]c3c(-c4ccncc4)nc(N4CCOCC4)nc23)nc1` [Compound 136, 4-(7-(pyridin-2-yl)-4-(pyridin-4-yl)-6H-pyrrolo[3,2-d]pyrimidin-2-yl)morpholine] it is 10 to 100 nM.

`c1cc(-c2nc(N3CCOCC3)nc3c(-c4ccncn4)c[nH]c23)ccn1` [Compound 137, 4-(4-(pyridin-4-yl)-7-(pyrimidin-4-yl)-6H-pyrrolo[3,2-d]pyrimidin-2-yl)morpholine]: the concentration for half-maximal inhibition (IC50) lay in the range of 10 to 100 nM. The figure for `c1cc(-c2nc(N3CCOCC3)nc3c(-c4nccc(C5CC5)n4)c[nH]c23)ccn1` [Compound 138, 4-(7-(4-cyclopropylpyrimidin-2-yl)-4-(pyridin-4-yl)-5H-pyrrolo[3,2-d]pyrimidin-2-yl)morpholine] is 100 to 1000 nM; for `COc1cccc(-c2c[nH]c3c(-c4ccncc4)nc(N4CCOCC4)nc23)n1` [Compound 139, 4-(7-(6-methoxypyridin-2-yl)-4-(pyridin-4-yl)-5H-pyrrolo[3,2-d]pyrimidin-2-yl)morpholine] it is 10 to 100 nM. The figure for `c1cc(-c2nc(N3CCOCC3)nc3c(-c4cnn(C5CC5)c4)c[nH]c23)ccn1` [Compound 140, 4-(7-(1-cyclopropyl-1H-pyrazol-4-yl)-4-(pyridin-4-yl)-5H-pyrrolo[3,2-d]pyrimidin-2-yl)morpholine] is 10 to 100 nM; for `Cn1nccc1-c1c[nH]c2c(-c3ccncc3)nc(N3CCOCC3)nc12` [Compound 141, 4-(7-(1-methyl-1H-pyrazol-5-yl)-4-(pyridin-4-yl)-5H-pyrrolo[3,2-d]pyrimidin-2-yl)morpholine] it is 10 to 100 nM; for `CN1CCn2ncc(-c3c[nH]c4c(-c5ccncc5)nc(N5CCOCC5)nc34)c2C1` [Compound 146, 4-(7-(5-methyl-4,5,6,7-tetrahydropyrazolo[1,5-a]pyrazin-3-yl)-4-(pyridin-4-yl)-5H-pyrrolo[3,2-d]pyrimidin-2-yl)morpholine] it is 100 to 1000 nM. With `OCCn1cc(-c2cccc(-n3cccn3)c2)c2nc(N3CCOCC3)nc(-c3ccncc3)c21` [Compound 149, 2-(7-(3-(1H-pyrazol-1-yl)phenyl)-2-morpholino-4-(pyridin-4-yl)-6H-pyrrolo[3,2-d]pyrimidin-5-yl)ethan-1-ol], the 50% inhibitory concentration (IC50) fell in the range of 100 to 1000 nM. Regarding `c1cc(-c2c[nH]c3c(OCc4cccnn4)nc(N4CCOCC4)nc23)cc(-n2cccn2)c1` [Compound 150, 4-(7-(3-(1H-pyrazol-1-yl)phenyl)-4-(pyridazin-3-ylmethoxy)-6H-pyrrolo[3,2-d]pyrimidin-2-yl)morpholine], the IC50 is 10 to 100 nM.

Turning to `c1cncc(N2CCc3c(OCC4CCOCC4)nc(N4CCOCC4)nc32)c1` [Compound 151, 4-{4-[(oxan-4-yl)methoxy]-7-(pyridin-3-yl)-5H,6H,7H-pyrrolo[2,3-d]pyrimidin-2-yl}morpholine], the IC50 was in the range of 100 to 1000 nM.
